According to ChEMBL document CHEMBL1201862, “PubChem BioAssay data set” (2004):
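Assay format: 96-well plates, 48-hour exposure. GI50 = concentration required for 50% inhibition of growth.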 Activity calls are given as the source filed them. Cut-off read from the data, not from the text of the source: active = GI50 up to about 1.1 µM and inactive = higher.

Assays:
Assay in all cases: NCI anticancer screen, dose series, 48 h
SNB-19 = test system: SNB-19
ACHN = test system: ACHN
M14 = test system: M14
HOP-62 = test system: HOP-62
DMS-114 = test system: DMS-114
EKVX = test system: EKVX
UO-31 = test system: UO-31
IGROV-1 = test system: IGROV-1
COLO 205 = test system: COLO 205
LXFL 529 = test system: LXFL 529
OVCAR-5 = test system: OVCAR-5
SN12C = test system: SN12C
HT-29 = test system: HT-29
TK-10 = test system: TK-10
HCC 2998 = test system: HCC 2998
SNB-75 = test system: SNB-75
KM12 = test system: KM12
HCT-15 = test system: HCT-15
CAKI-1 = test system: CAKI-1
HCT-116 = test system: HCT-116
HL-60 = test system: HL-60
UACC-62 = test system: UACC-62
OVCAR-8 = test system: OVCAR-8
SK-OV-3 = test system: SK-OV-3
A498 = test system: A498
SF-268 = test system: SF-268
SK-MEL-5 = test system: SK-MEL-5
MOLT-4 = test system: MOLT-4
SF-539 = test system: SF-539
OVCAR-4 = test system: OVCAR-4
NCI-H23 = test system: NCI-H23
CCRF-CEM = test system: CCRF-CEM
Malme-3M = test system: Malme-3M
RPMI-8226 = test system: RPMI-8226
SK-MEL-2 = test system: SK-MEL-2
LOX IMVI = test system: LOX IMVI
RXF 393 = test system: RXF 393
UACC-257 = test system: UACC-257
SW-620 = test system: SW-620
XF498 = test system: XF498
SF-295 = test system: SF-295
DLD-1 = test system: DLD-1
HOP-92 = test system: HOP-92
NCI-H226 = test system: NCI-H226
NCI-H460 = test system: NCI-H460
U-251 = test system: U-251
M19-MEL = test system: M19-MEL
786-0 = test system: 786-0
KM-20L2 = test system: KM-20L2
OVCAR-3 = test system: OVCAR-3
DMS-273 = test system: DMS-273
K562 = test system: K562
NCI-H522 = test system: NCI-H522
A549 = test system: A549
SK-MEL-28 = test system: SK-MEL-28
SNB-78 = test system: SNB-78

Which GI50 (SNB-19) does the source give for `CCc1cccc(C(C)CC)c1NC(=O)C(=O)Cc1nc2ccccc2o1` (stereo unspecified) here?
The GI50 was > 50 µM (inactive).

What about the GI50 (ACHN) of the same molecule?
Its GI50 is > 50 µM (inactive).

And the GI50 (M14)?
Its GI50 is > 50 µM (inactive).

And the GI50 (HOP-62)?
Its GI50 is > 50 µM (inactive).

What about the GI50 (DMS-114) of the same molecule?
The GI50 was > 50 µM (inactive).

What about the GI50 (EKVX) of the same molecule?
The GI50 was > 50 µM (inactive).

What about the GI50 (UO-31) of the same molecule?
Its GI50 is > 50 µM (inactive).

What about the GI50 (IGROV-1) of the same molecule?
The GI50 was > 50 µM (inactive).

And the GI50 (COLO 205)?
The GI50 was > 50 µM (inactive).

What about the GI50 (LXFL 529) of the same molecule?
The GI50 was > 50 µM (inactive).

And the GI50 (OVCAR-5)?
The GI50 was > 43.8 µM (inactive).

And the GI50 (SN12C)?
Its GI50 is > 50 µM (inactive).

And the GI50 (HT-29)?
The GI50 was > 50 µM (inactive).

What about the GI50 (TK-10) of the same molecule?
The GI50 was > 50 µM (inactive).

What about the GI50 (HCC 2998) of the same molecule?
Its GI50 is > 50 µM (inactive).

What about the GI50 (SNB-75) of the same molecule?
Its GI50 is > 50 µM (inactive).

And the GI50 (KM12)?
Its GI50 is > 50 µM (inactive).

What about the GI50 (HCT-15) of the same molecule?
The GI50 was over 50 µM.

What about the GI50 (CAKI-1) of the same molecule?
Its GI50 is > 50 µM (inactive).

What about the GI50 (HCT-116) of the same molecule?
Its GI50 is > 50 µM (inactive).

What about the GI50 (HL-60) of the same molecule?
Its GI50 is > 50 µM (inactive).

And the GI50 (UACC-62)?
Its GI50 is > 50 µM (inactive).

What about the GI50 (OVCAR-8) of the same molecule?
Its GI50 is > 50 µM (inactive).

What about the GI50 (SK-OV-3) of the same molecule?
The GI50 was > 50 µM (inactive).

What about the GI50 (A498) of the same molecule?
Its GI50 is > 50 µM (inactive).

What about the GI50 (SF-268) of the same molecule?
Its GI50 is > 50 µM (inactive).

What about the GI50 (SK-MEL-5) of the same molecule?
The GI50 was > 50 µM (inactive).

What about the GI50 (MOLT-4) of the same molecule?
The GI50 was > 34.5 µM (inactive).

And the GI50 (SF-539)?
The GI50 was > 50 µM (inactive).

And the GI50 (OVCAR-4)?
The GI50 was > 50 µM (inactive).

And the GI50 (NCI-H23)?
The GI50 was > 50 µM (inactive).

And the GI50 (CCRF-CEM)?
Its GI50 is > 50 µM (inactive).

And the GI50 (Malme-3M)?
The GI50 was > 50 µM (inactive).

And the GI50 (RPMI-8226)?
The GI50 was > 50 µM (inactive).

And the GI50 (SK-MEL-2)?
Its GI50 is > 50 µM (inactive).

What about the GI50 (LOX IMVI) of the same molecule?
Its GI50 is > 50 µM (inactive).

What about the GI50 (RXF 393) of the same molecule?
Its GI50 is > 50 µM (inactive).

What about the GI50 (UACC-257) of the same molecule?
Its GI50 is > 50 µM (inactive).

And the GI50 (SW-620)?
Its GI50 is > 50 µM (inactive).

What about the GI50 (XF498) of the same molecule?
The GI50 was > 50 µM (inactive).

What about the GI50 (SF-295) of the same molecule?
Its GI50 is > 50 µM (inactive).

And the GI50 (DLD-1)?
The GI50 was > 50 µM (inactive).

What about the GI50 (HOP-92) of the same molecule?
The GI50 was > 50 µM (inactive).

And the GI50 (NCI-H226)?
The GI50 was 3.82 µM (inactive).

What about the GI50 (NCI-H460) of the same molecule?
The GI50 was > 50 µM (inactive).

What about the GI50 (U-251) of the same molecule?
Its GI50 is > 50 µM (inactive).

And the GI50 (M19-MEL)?
Its GI50 is > 50 µM (inactive).

What about the GI50 (786-0) of the same molecule?
The GI50 was > 50 µM (inactive).

What about the GI50 (KM-20L2) of the same molecule?
The GI50 was > 50 µM (inactive).

And the GI50 (OVCAR-3)?
The GI50 was > 50 µM (inactive).

What about the GI50 (DMS-273) of the same molecule?
The GI50 was > 50 µM (inactive).

And the GI50 (K562)?
The GI50 was > 50 µM (inactive).

And the GI50 (NCI-H522)?
Its GI50 is > 50 µM (inactive).

What about the GI50 (A549) of the same molecule?
Its GI50 is > 50 µM (inactive).

What about the GI50 (SK-MEL-28) of the same molecule?
The GI50 was > 50 µM (inactive).

What about the GI50 (SNB-78) of the same molecule?
The GI50 was > 50 µM (inactive).
